Data reported in patent US9028856B2, “Synergistic pesticide compositions” (priority 2008, dated 2015).

Tests used:
[1] = test system: Argentine ant, Linepithema humile; assay: Knockdown/mortality of ant workers under continuous exposure on treated glazed tile; conditions: for toxicity / efficacy of the substance alone (summary in words): Argentine ant, treated glazed tile; for Average % Knockdown & Mortality after 3 hr / Average % Knockdown & Mortality after 7 hr / Average % Knockdown & Mortality after 1 hr / Average % Knockdown & Mortality after 2 hr / Average % Knockdown & Mortality after 30 min / Average % Knockdown & Mortality after 24 hr / Average % Knockdown & Mortality after 4 hr / Average % Knockdown & Mortality after 5 hr / Average % Knockdown & Mortality after 6 hr / Average % Knockdown & Mortality after 18 hr: glazed tile
Method: (§1) Solutions of imidacloprid at 0.5% AI were prepared with and without methyl oleate @0.1, 1.0 and 5.0% in acetone. Treatments were applied using a micropipette to dispense 1 ml of test solution evenly on a 6″×6″ glazed tile. Actual coverage was about 5″×5″ (or 161 cm^2) for easy handling. Treatments were allowed to dry overnight. Ten Argentine ant workers were placed within a fluon or talc-coated PVC ring (φ7.6 cm×H 5.1 cm) under continuous exposure. A small vial filled with a cotton ball soaked in water was added as a drinking source after 3 hours. Treatments were replicated a minimum of three times. Evaluations for ant knockdown/mortality were made at various intervals and at 24 hours after exposure.
as §1, with “MATERIALS AND METHODS: Solutions” for “Solutions”, “linoleate” for “oleate”
as §1, with “MATERIALS AND METHODS: Solutions of” for “Solutions of”, “without methyl palmitate @0.1, 1.0” for “without methyl oleate @0.1, 1.0”, “after exposure. […]” for “after exposure.”

[2] = test system: bait averse/resistant German cockroach (T-164 strain); assay: Knockdown/mortality of male cockroaches under continuous exposure on treated glazed tile; format: in vivo, Blattella germanica; set-up: Average % Knockdown & Mortality after 5 hr / Average % Knockdown & Mortality after 30 min: concentration or dose not given beside the values; conditions: for toxicity / efficacy of the substance alone (summary in words): German cockroach T-164, treated glazed tile; for Average % Knockdown & Mortality after 45 min: Table 24, imidacloprid/dibutyl sebacate (DBS) in acetone
[3] = Table 7 (Ex. 4), continuous exposure, listed as Oleic acid (0.1%)
[4] = Table 7 (Ex. 4), continuous exposure, listed as Oleic acid (5%)
[5] = Table 14 (Ex. 11), continuous exposure
[6] = Table 15 (Ex. 12), glazed tile, continuous exposure
[7] = Table 15 (Ex. 12), glazed tile, continuous exposure, listed as Butylated hydroxyanisole (BHA) (1%)
[8] = Table 15 (Ex. 12), glazed tile, continuous exposure, listed as Butylated hydroxyanisole (BHA) (5%)
[9] = 2 hr, Table 22, imidacloprid/tritylchloride in acetone, continuous exposure
[10] = Table 22, imidacloprid/tritylchloride in acetone, continuous exposure
[11] = 3 hr, Table 23, imidacloprid/tritylchloride in acetone, glazed tile, T-164 strain
[12] = Table 19 (Ex. 16), continuous exposure
[13] = Table 19 (Ex. 16), continuous exposure, listed as TBHQ (0.1%)
[14] = Table 19 (Ex. 16), continuous exposure, listed as TBHQ (1%)
[15] = Table 19 (Ex. 16), continuous exposure, listed as TBHQ (5%)
[16] = Table 18 (Ex. 15), glazed tile, continuous exposure, listed as TBHQ (1%)
[17] = Table 18 (Ex. 15), glazed tile, continuous exposure, listed as TBHQ (5%)
[18] = 2 hr, Table 25, imidacloprid/dibutyl sebacate (DBS) in acetone
[19] = 4 hr, Table 25, imidacloprid/dibutyl sebacate (DBS) in acetone
[20] = Table 16 (Ex. 13), continuous exposure, listed as Butylated hydroxytoluene (BHT) (1%)
[21] = Table 16 (Ex. 13), continuous exposure, listed as Butylated hydroxytoluene (BHT) (5%)

CCCCCCCC/C=C\CCCCCCCC(=O)O [Oleic acid]
toxicity / efficacy of the substance alone (summary in words) [1]: at the high rates (1 & 5%) was toxic to the Argentine ants, but not at the low rate (0.1%) | Average % Knockdown & Mortality after 3 hr [1, 3]: 0% | Average % Knockdown & Mortality after 7 hr [1, 3]: 0% | Average % Knockdown & Mortality after 3 hr ([1]; Table 7 (Ex. 4), continuous exposure, listed as Oleic acid (1%)): 82% | Average % Knockdown & Mortality after 3 hr [1, 4]: 100% | Average % Knockdown & Mortality after 7 hr [1, 4]: 100% | toxicity / efficacy of the substance alone (summary in words) [2]: toxic to German cockroaches at the high rate (5%), but not toxic at the two low rates | Average % Knockdown & Mortality after 15 min ([2]; Table 6 (Ex. 3), glazed tile, continuous exposure): 0%

COc1ccc(O)c(C(C)(C)C)c1 [BHA, butylated hydroxyanisole]
toxicity / efficacy of the substance alone (summary in words) [1]: delayed toxicity | Average % Knockdown & Mortality after 1 hr [1, 5]: 0% | Average % Knockdown & Mortality after 2 hr [1, 5]: 0% | Average % Knockdown & Mortality after 30 min ([1]; Table 14 (Ex. 11), continuous exposure, UTC 63% at 24 hr): 0% | Average % Knockdown & Mortality after 24 hr ([1]; Table 14 (Ex. 11), continuous exposure, UTC 63% at 24 hr, listed as Butylated hydroxyanisole (BHA) (0.1%)): 37% | Average % Knockdown & Mortality after 24 hr ([1]; Table 14 (Ex. 11), continuous exposure, UTC 63% at 24 hr, listed as Butylated hydroxyanisole (BHA) (1%)): 40% | Average % Knockdown & Mortality after 24 hr ([1]; Table 14 (Ex. 11), continuous exposure, UTC 63% at 24 hr, listed as Butylated hydroxyanisole (BHA) (5%)): 74% | Average % Knockdown & Mortality after 4 hr ([1]; Table 14 (Ex. 11), continuous exposure, listed as Butylated hydroxyanisole (BHA) (0.1%)): 10% | Average % Knockdown & Mortality after 4 hr ([1]; Table 14 (Ex. 11), continuous exposure, listed as Butylated hydroxyanisole (BHA) (1%)): 3% | Average % Knockdown & Mortality after 4 hr ([1]; Table 14 (Ex. 11), continuous exposure, listed as Butylated hydroxyanisole (BHA) (5%)): 19% | toxicity / efficacy of the substance alone (summary in words) [2]: at the high rate (5%) was toxic to the German cockroach, but not at its lower rates (1.0 and 0.1%) | Average % Knockdown & Mortality after 30 min [2, 6]: 0% | Average % Knockdown & Mortality after 1 hr [2, 6]: 0% | Average % Knockdown & Mortality after 24 hr ([2]; Table 15 (Ex. 12), glazed tile, continuous exposure, listed as Butylated hydroxyanisole (BHA) (0.1%)): 20% | Average % Knockdown & Mortality after 2 hr [2, 7]: 0% | Average % Knockdown & Mortality after 4 hr [2, 7]: 0% | Average % Knockdown & Mortality after 24 hr [2, 7]: 0% | Average % Knockdown & Mortality after 2 hr [2, 8]: 20% | Average % Knockdown & Mortality after 4 hr [2, 8]: 20% | Average % Knockdown & Mortality after 24 hr [2, 8]: 73%

ClC(c1ccccc1)(c1ccccc1)c1ccccc1 [Tritylchloride (0.1%)]
Average % Knockdown & Mortality after 2 hr [1, 9]: 0% | Average % Knockdown & Mortality after 5 hr [1, 10]: 0% | Average % Knockdown & Mortality after 3 hr [2, 11]: 0%

O=C(O)CCc1ccccc1 [benzenepropanoic acid]
toxicity / efficacy of the substance alone (summary in words) [1]: not toxic | Average % Knockdown & Mortality after 3 hr ([1]; Table 4 (Ex. 1), continuous exposure): 0% | Average % Knockdown & Mortality after 7 hr ([1]; Table 4 (Ex. 1), continuous exposure, listed as Benzenepropanoic acid(1%)): 0% | Average % Knockdown & Mortality after 7 hr ([1]; Table 4 (Ex. 1), continuous exposure, listed as Benzenepropanoic acid(5%)): 7% | toxicity / efficacy of the substance alone (summary in words) [2]: slightly to not toxic | Average % Knockdown & Mortality after 15 min ([2]; Table 5 (Ex. 2), glazed tile, continuous exposure): 0%

CCCCOC(=O)CCCCCCCCC(=O)OCCCC [DBS, dibutyl sebacate]
toxicity / efficacy of the substance alone (summary in words) [1]: toxic to the Argentine ants, and the lower rates (0.1 & 1.0%) of DBS showed delayed toxicity | toxicity / efficacy of the substance alone (summary in words) [2]: not toxic to German cockroaches, except at its highest rate (5%)

ClC(c1ccccc1)(c1ccccc1)c1ccccc1 [Tritylchloride, triphenyl methyl chloride (tritylchloride)]
toxicity / efficacy of the substance alone (summary in words) [1]: not toxic | toxicity / efficacy of the substance alone (summary in words) [2]: not toxic

ClC(c1ccccc1)(c1ccccc1)c1ccccc1 [Tritylchloride (1%)]
Average % Knockdown & Mortality after 2 hr [1, 9]: 0% | Average % Knockdown & Mortality after 5 hr [1, 10]: 0% | Average % Knockdown & Mortality after 3 hr [2, 11]: 0%

CC(C)(C)c1cc(O)ccc1O [TBHQ, tertiary butyl dihydroxyquinone]
toxicity / efficacy of the substance alone (summary in words) [1]: toxic effect | Average % Knockdown & Mortality after 30 min [1, 12]: 0% | Average % Knockdown & Mortality after 1 hr [1, 12]: 0% | Average % Knockdown & Mortality after 6 hr [1, 13]: 7% | Average % Knockdown & Mortality after 24 hr [1, 13]: 11% | Average % Knockdown & Mortality after 4 hr [1, 14]: 0% | Average % Knockdown & Mortality after 6 hr [1, 14]: 10% | Average % Knockdown & Mortality after 4 hr [1, 15]: 10% | Average % Knockdown & Mortality after 6 hr [1, 15]: 23% | Average % Knockdown & Mortality after 24 hr [1, 15]: 100% | toxicity / efficacy of the substance alone (summary in words) [2]: at the higher rates (1 & 5%) showed delayed toxic effect | Average % Knockdown & Mortality after 30 min ([2]; Table 18 (Ex. 15), glazed tile, continuous exposure): 0% | Average % Knockdown & Mortality after 24 hr ([2]; Table 18 (Ex. 15), glazed tile, continuous exposure, listed as TBHQ (0.1%)): 7% | Average % Knockdown & Mortality after 1 hr [2, 16]: 0% | Average % Knockdown & Mortality after 2 hr [2, 16]: 0% | Average % Knockdown & Mortality after 4 hr [2, 16]: 0% | Average % Knockdown & Mortality after 24 hr [2, 16]: 40% | Average % Knockdown & Mortality after 1 hr [2, 17]: 7% | Average % Knockdown & Mortality after 2 hr [2, 17]: 7% | Average % Knockdown & Mortality after 4 hr [2, 17]: 7% | Average % Knockdown & Mortality after 24 hr [2, 17]: 47%

CCCCOC(=O)CCCCCCCCC(=O)OCCCC [DBS (1%)]
Average % Knockdown & Mortality after 2 hr [1, 18]: 0% | Average % Knockdown & Mortality after 4 hr [1, 19]: 77% | Average % Knockdown & Mortality after 45 min ([2]; glazed tile, T-164 strain): 0%

CCCCOC(=O)CCCCCCCCC(=O)OCCCC [DBS (5%)]
Average % Knockdown & Mortality after 2 hr [1, 18]: 100% | Average % Knockdown & Mortality after 4 hr [1, 19]: 100% | Average % Knockdown & Mortality after 45 min ([2]; glazed tile, T-164 strain): 0%

CCCCOC(=O)CCCCCCCCC(=O)OCCCC [DBS (0.1%)]
Average % Knockdown & Mortality after 2 hr [1, 18]: 0% | Average % Knockdown & Mortality after 4 hr [1, 19]: 9% | Average % Knockdown & Mortality after 45 min ([2]; glazed tile, T-164 strain): 0%

ClC(c1ccccc1)(c1ccccc1)c1ccccc1 [Tritylchloride (5%)]
Average % Knockdown & Mortality after 2 hr [1, 9]: 0% | Average % Knockdown & Mortality after 5 hr [1, 10]: 0% | Average % Knockdown & Mortality after 3 hr [2, 11]: 0%

c1ccc(Cc2ccccc2)cc1 [Diphenyl methane, diphenyl methane]
toxicity / efficacy of the substance alone (summary in words) [1]: not toxic | Average % Knockdown & Mortality after 2 hr ([1]; Table 20 (Ex. 17), continuous exposure): 0% | Average % Knockdown & Mortality after 4 hr ([1]; Table 20 (Ex. 17), continuous exposure, listed as Diphenyl methane (DPM) (0.1%)): 13% | Average % Knockdown & Mortality after 4 hr ([1]; Table 20 (Ex. 17), continuous exposure, listed as Diphenyl methane (DPM) (5%)): 0% | toxicity / efficacy of the substance alone (summary in words) [2]: not toxic | Average % Knockdown & Mortality after 3 hr ([2]; Table 21 (Ex. 18), glazed tile, continuous exposure): 0%

Cc1cc(C(C)(C)C)c(O)c(C(C)(C)C)c1 [BHT, butylated hydroxytoluene]
toxicity / efficacy of the substance alone (summary in words) [1]: toxic | Average % Knockdown & Mortality after 18 hr ([1]; Table 16 (Ex. 13), continuous exposure, listed as Butylated hydroxytoluene (BHT) (0.1%)): 7% | Average % Knockdown & Mortality after 2 hr [1, 20]: 3% | Average % Knockdown & Mortality after 18 hr [1, 20]: 3% | Average % Knockdown & Mortality after 2 hr [1, 21]: 7% | Average % Knockdown & Mortality after 18 hr [1, 21]: 79% | toxicity / efficacy of the substance alone (summary in words) [2]: not toxic | Average % Knockdown & Mortality after 5 hr ([2]; Table 17 (Ex. 14), glazed tile, continuous exposure): 0%

CCCCCCCCCCCCCCCC(=O)OC [Methyl palmitate, methyl palmitate]
toxicity / efficacy of the substance alone (summary in words) [1]: not toxic | Average % Knockdown & Mortality after 3 hr ([1]; Table 12 (Ex. 9), continuous exposure): 0% | Average % Knockdown & Mortality after 7 hr ([1]; Table 12 (Ex. 9), continuous exposure, listed as Methyl Palmitate (1%)): 0% | Average % Knockdown & Mortality after 7 hr ([1]; Table 12 (Ex. 9), continuous exposure, listed as Methyl Palmitate (5%)): 7% | toxicity / efficacy of the substance alone (summary in words) [2]: not toxic | Average % Knockdown & Mortality after 4 hr ([2]; Table 13 (Ex. 10), glazed tile, continuous exposure): 0%
